One experiment has as its target T1, PIM3 (Homo sapiens, UniProt Q86V86).
T1 construct: purchased Millipore 14-738
Briefly: RBC HotSpot kinase inhibition assay, PIM3. It is filed as biochemical. How it is done:
(§1) Reagents. Base Reaction Buffer: 20 mM Hepes (pH 7.5), 10 mM MgCl2, 1 mM EGTA, 0.01% Brij35, 0.02 mg/ml BSA, 0.1 mM Na3VO4, 2 mM DTT, 1% DMSO. The following kinases were used in the assay at the indicated concentrations:
(§2) The following substrates were used in combination with the indicated kinases in the assay at the indicated concentration:
(§3) No cofactors were added to any of the reactions.
(§4) • 1. Prepared substrate in freshly prepared Reaction Buffer. • 2. Delivered kinase into the substrate solution and gently mixed. • 3. Delivered test compound in 100% DMSO into the kinase reaction mixture by Acoustic technology (Echo550; nanoliter range), incubated for 20 minutes at room temperature. • 4. Delivered ^33P-ATP into the reaction mixture to initiate the reaction. • 5. Incubated for 2 hours at room temperature. • 6. Detected kinase activity by P81 filter-binding method.
(§5) The results of the RBC HotSpot™ kinase assay are set forth in Table 1, wherein “A” indicates an IC50<10 nM, “B” indicates an IC50 wherein 10 nM≤IC50≤100 nM, and “C” indicates an IC50>100 nM.

The target of a further experiment is T2, PIM1 (Homo sapiens, UniProt P11309).
T2 construct: purchased Invitrogen PV3503
T2 sequence (P11309 whole entry): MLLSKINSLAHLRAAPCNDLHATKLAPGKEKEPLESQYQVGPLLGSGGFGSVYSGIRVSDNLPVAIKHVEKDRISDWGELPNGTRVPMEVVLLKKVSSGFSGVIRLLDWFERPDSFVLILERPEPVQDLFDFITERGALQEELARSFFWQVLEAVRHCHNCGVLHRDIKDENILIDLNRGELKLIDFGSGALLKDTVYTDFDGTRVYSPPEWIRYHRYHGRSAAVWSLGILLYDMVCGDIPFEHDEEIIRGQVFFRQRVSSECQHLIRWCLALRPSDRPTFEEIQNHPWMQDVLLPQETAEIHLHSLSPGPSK
Description: RBC HotSpot kinase inhibition assay, PIM1. The class given is biochemical. The protocol: as §1, §2, §3, §4, §5

A further experiment has as its target T3, PIM2 (Homo sapiens, UniProt Q9P1W9).
T3 construct: purchased Invitrogen PR6347B
Briefly: RBC HotSpot kinase inhibition assay, PIM2. The class given is biochemical. The protocol: as §1, §2, §3, §4, §5

Another experiment relates to A549 cells. Description: Wound healing assay in A549 cells with TGF-β. It is filed as cell-based. To be noted: Homo sapiens; wound healing, A549, 5 ng/ml TGF-β, 24 h; read-out: IC50 (μM) 24 h. An excerpt:
Overview. Epithelial to mesenchymal transition (EMT) is used to describe epithelial cells losing their cell to cell adhesion and polarity while gaining migratory and invasive properties. The process of EMT is required for normal embryonic development and wound healing, but has also been implicated in fibrosis. In humans, TGF-β signaling is the main driver of EMT, and inhibiting this pathway may be beneficial in various diseases such as fibrosis. A wound healing assay was used to study cell migration and cell-cell interaction, and probe the EMT properties of lung epithelial cells (A549) in presence of Compound 2 or Compound 4.
Procedure. A549 cells (ATCC, CCL-185) were seeded into the ImageLock plate (Essen Bioscience) at 2×10^4 cells/well in 100 μL of complete growth media. Cells were incubated overnight at 37° C., 5% CO2. The next day, cells were washed with 1×PBS and Compound 2, Compound 4, DMSO control (±TGF-β) or galunisertib (TGF-β inhibitor used as positive control) was added to the cells in a serum-free F12K media (0.2% DMSO final, 10 μM starting concentration, 3-fold dilution, 8-doses) in presence of 5 ng/ml TGF-β. Cells were incubated for 48 hours (until they reached confluency) at 37° C., 5% CO2. Wounds were simultaneously created using a WoundMaker™ (Essen Bioscience). Debris and non-attached cells were removed by gently washing once with F12K.
Test compound or control compound and TGF-β were added to the cells in F12K+10% FBS as previously described. The ImageLock plate was put into IncuCyteS3 instrument installed inside a 5% CO2 incubator. The plate was allowed to equilibrate in the IncuCyteS3 instrument for 15 minutes prior to scheduling the first scan and data recording. The plate was incubated for 72 hours at 37° C., and wound closure was recorded in real time with the IncuCyte S3 imaging system. Percentage of relative wound density was quantitatively calculated by the IncuCyte software.

The next experiment relates to mouse psoriasis models. Particulars: cited from earlier work.

As a reminder, the IC50 is the concentration that gives 50% inhibition.

T3 sequence (Q9P1W9 whole entry): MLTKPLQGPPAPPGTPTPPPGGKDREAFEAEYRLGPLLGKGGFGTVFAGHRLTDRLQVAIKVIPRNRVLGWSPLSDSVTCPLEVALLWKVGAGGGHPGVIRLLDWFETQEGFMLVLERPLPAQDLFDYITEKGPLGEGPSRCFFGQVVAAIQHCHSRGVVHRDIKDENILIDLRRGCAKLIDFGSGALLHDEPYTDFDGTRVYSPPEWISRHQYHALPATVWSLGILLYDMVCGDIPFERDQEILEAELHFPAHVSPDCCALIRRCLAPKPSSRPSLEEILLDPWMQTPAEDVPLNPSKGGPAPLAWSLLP

With `CCc1cc(-c2cnc3ccc(NC45CCC(O)(CC4)C5)nn23)c[nH]1` [Compound 3, 4-((3-(5-ethyl-1H-pyrrol-3-yl)imidazo[1,2-b]pyridazin-6-yl)amino)bicyclo[2.2.1]heptan-1-ol], the concentration for half-maximal inhibition (IC50) at PIM3 is 10 to 100 nM; at PIM1, 10 to 100 nM; on PIM2, above 100 nM.
As to `CCc1cc(-c2cnc3ccc(NC45CCC(C(C)(C)O)(CC4)CC5)nn23)n[nH]1` [Compound 6, 2-(4-((3-(5-ethyl-1H-pyrazol-3-yl)imidazo[1,2-b]pyridazin-6-yl)amino)bicyclo[2.2.2]octan-1-yl)propan-2-ol], the IC50 on PIM3 was below 10 nM; at PIM1 it was below 10 nM; at PIM2, above 100 nM.
As for `Cc1cccc(-c2nn3c(c2-c2ccnc4ccc(C(N)=O)cc24)CCC3)n1` [Galunisertib, galunisertib, reference compound], in the experiment with A549 cells, the IC50 is above 10 µM.
Turning to `CN1CCC(CNc2ccc3ncc(-c4cccc(OC(F)(F)F)c4)n3n2)CC1` [SGI-1776], in the experiment on mouse psoriasis models, the epidermal thickening entry is on record as “partial reduction” and the vascularization result is “partial reduction”.
On to `CCc1cc(-c2cnc3ccc(NC45CCC(O)(CC4)C5)nn23)n[nH]1` [Compound 7, 4-((3-(5-ethyl-1H-pyrazol-3-yl)imidazo[1,2-b]pyridazin-6-yl)amino)bicyclo[2.2.1]heptan-1-ol], for which the IC50 was 10 to 100 nM at PIM3, 10 to 100 nM at PIM1 and above 100 nM on PIM2.
Consider `Cc1cc(-c2cnc3ccc(NC45CCC(O)(CC4)C5)nn23)n[nH]1` [Compound 1, 4-((3-(5-methyl-1H-pyrazol-3-yl)imidazo[1,2-b]pyridazin-6-yl)amino)bicyclo[2.2.1]heptan-1-ol], for which the IC50 at PIM3, at PIM1 and at PIM2 was above 100 nM in each case.
With `OC12CCC(Nc3ccc4ncc(-c5cc(C6CC6)[nH]n5)n4n3)(CC1)C2` [Compound 5, 4-((3-(5-cyclopropyl-1H-pyrazol-3-yl)imidazo[1,2-b]pyridazin-6-yl)amino)bicyclo[2.2.1]heptan-1-ol], the half-inhibitory concentration (IC50) at PIM3 is 10 to 100 nM; on PIM1, 10 to 100 nM; at PIM2, above 100 nM.

These data come from patent publication US20240360135A1, “IMIDAZO[1,2-B]PYRIDAZINYL COMPOUNDS AND USES THEREOF” (Sumitomo Pharma Oncology, Inc., priority 2021, published 2024).
